Reference: patent US8802597B2, “Herbicidal pyrimidines” (E I du Pont de Nemours and Company, priority 2003, dated 2014)

Legend:
Format in all cases: in vivo
[1] = system: common chickweed (Stellaria media); experiment: Test D pre/postemergence; details: scale 0 to 100 (100 = complete control)
Outline: (§1)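 Pre: seeds sown, then treated. Post: plants at 1- to 4-leaf stage (2 to 18 cm) sprayed at the same time. Chemicals formulated in a non-phytotoxic solvent mixture including surfactant. After 15 to 25 days under controlled growth conditions, response rated visually from 0 (no effect) to 100 (complete control).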

[2] = system: wild mustard (Sinapis arvensis); experiment: Test D pre/postemergence; details: scale 0 to 100 (100 = complete control)
Outline: as §1

kochia (Kochia scoparia) = experiment: Test D pre/postemergence; details: scale 0 to 100 (100 = complete control)
Outline: as §1

[3] = system: lambsquarters (Chenopodium album); experiment: Test D pre/postemergence; details: scale 0 to 100 (100 = complete control)
Outline: as §1

[4] = system: wild buckwheat (Polygonum convolvulus); experiment: Test D pre/postemergence; details: scale 0 to 100 (100 = complete control)
Outline: as §1

[5] = system: pigweed (Amaranthus retroflexus); experiment: Test D pre/postemergence; details: scale 0 to 100 (100 = complete control)
Outline: as §1

[6] = system: wheat (Triticum aestivum); experiment: Test D pre/postemergence; details: scale 0 to 100 (100 = complete control)
Outline: as §1

[7] = system: catchweed bedstraw (galium; Galium aparine); experiment: Test D pre/postemergence; details: scale 0 to 100 (100 = complete control)
Outline: as §1

[8] = system: Russian thistle (Salsola kali); experiment: Test D pre/postemergence; details: scale 0 to 100 (100 = complete control)
Outline: as §1

[9] = system: winter barley (Hordeum vulgare); experiment: Test C postemergence; details: for Plant response rating, Barley: scale 0 to 100
Outline: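 We sprayed seeded pots preemergence and 2–18 cm seedlings postemergence with test chemicals in a non-phytotoxic solvent mixture including surfactant. Greenhouse plants were visually compared with untreated controls at 12 to 14 days and scored 0 (no effect) to 100 (complete control).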

**Q.** Which “Plant response rating, Chickweed” value ([1]; Postemergence, 16 g ai/ha) does the source give for `COC(=O)c1nc(C2CC2)nc(N)c1Br` [Compound 2, methyl 6-amino-5-bromo-2-cyclopropyl-4-pyrimidinecarboxylate] here?
**A.** Its value is 60.

**Q.** And the “Plant response rating, Chickweed” value ([1]; Postemergence, 31 g ai/ha)?
**A.** Its value is 60.

**Q.** What about the “Plant response rating, Chickweed” value ([1]; Postemergence, 62 g ai/ha) of the same compound?
**A.** The value was 85.

**Q.** And the “Plant response rating, Chickweed” value ([1]; Postemergence, 125 g ai/ha)?
**A.** The value was 85.

**Q.** And the “Plant response rating, Chickweed” value ([1]; Preemergence, 16 g ai/ha)?
**A.** Its value is 60.

**Q.** What about the “Plant response rating, Chickweed” value ([1]; Preemergence, 31 g ai/ha) of the same compound?
**A.** Its value is 60.

**Q.** What about the “Plant response rating, Chickweed” value ([1]; Preemergence, 62 g ai/ha) of the same compound?
**A.** Its value is 75.

**Q.** What about the “Plant response rating, Chickweed” value ([1]; Preemergence, 125 g ai/ha) of the same compound?
**A.** Its value is 90.

**Q.** What about the “Plant response rating, Mustard, Wild” value ([2]; Postemergence, 16 g ai/ha) of the same compound?
**A.** The value was 65.

**Q.** What about the “Plant response rating, Mustard, Wild” value ([2]; Postemergence, 31 g ai/ha) of the same compound?
**A.** Its value is 65.

**Q.** What about the “Plant response rating, Mustard, Wild” value ([2]; Postemergence, 62 g ai/ha) of the same compound?
**A.** Its value is 70.

**Q.** What about the “Plant response rating, Mustard, Wild” value ([2]; Postemergence, 125 g ai/ha) of the same compound?
**A.** The value was 80.

**Q.** What about the “Plant response rating, Mustard, Wild” value ([2]; Preemergence, 16 g ai/ha) of the same compound?
**A.** The value was 50.

**Q.** And the “Plant response rating, Mustard, Wild” value ([2]; Preemergence, 31 g ai/ha)?
**A.** Its value is 70.

**Q.** And the “Plant response rating, Mustard, Wild” value ([2]; Preemergence, 62 g ai/ha)?
**A.** Its value is 70.

**Q.** And the “Plant response rating, Mustard, Wild” value ([2]; Preemergence, 125 g ai/ha)?
**A.** Its value is 85.

**Q.** What about the “Plant response rating, Kochia” value (kochia (Kochia scoparia); Postemergence, 16 g ai/ha) of the same compound?
**A.** The value was 75.

**Q.** And the “Plant response rating, Kochia” value (kochia (Kochia scoparia); Postemergence, 31 g ai/ha)?
**A.** The value was 100.

**Q.** What about the “Plant response rating, Kochia” value (kochia (Kochia scoparia); Postemergence, 62 g ai/ha) of the same compound?
**A.** Its value is 100.

**Q.** And the “Plant response rating, Kochia” value (kochia (Kochia scoparia); Postemergence, 125 g ai/ha)?
**A.** Its value is 100.

**Q.** And the “Plant response rating, Kochia” value (kochia (Kochia scoparia); Preemergence, 16 g ai/ha)?
**A.** Its value is 55.

**Q.** What about the “Plant response rating, Kochia” value (kochia (Kochia scoparia); Preemergence, 31 g ai/ha) of the same compound?
**A.** Its value is 70.

**Q.** And the “Plant response rating, Kochia” value (kochia (Kochia scoparia); Preemergence, 62 g ai/ha)?
**A.** Its value is 100.

**Q.** And the “Plant response rating, Kochia” value (kochia (Kochia scoparia); Preemergence, 125 g ai/ha)?
**A.** The value was 100.

**Q.** And the “Plant response rating, Lambsquarters” value ([3]; Postemergence, 16 g ai/ha)?
**A.** Its value is 60.

**Q.** And the “Plant response rating, Lambsquarters” value ([3]; Postemergence, 31 g ai/ha)?
**A.** Its value is 100.

**Q.** What about the “Plant response rating, Lambsquarters” value ([3]; Postemergence, 62 g ai/ha) of the same compound?
**A.** Its value is 100.

**Q.** And the “Plant response rating, Lambsquarters” value ([3]; Postemergence, 125 g ai/ha)?
**A.** The value was 100.

**Q.** What about the “Plant response rating, Lambsquarters” value ([3]; Preemergence, 31 g ai/ha) of the same compound?
**A.** Its value is 85.

**Q.** And the “Plant response rating, Lambsquarters” value ([3]; Preemergence, 62 g ai/ha)?
**A.** Its value is 95.

**Q.** And the “Plant response rating, Lambsquarters” value ([3]; Preemergence, 125 g ai/ha)?
**A.** The value was 100.

**Q.** What about the “Plant response rating, Buckwheat, Wild” value ([4]; Postemergence, 16 g ai/ha) of the same compound?
**A.** The value was 45.

**Q.** And the “Plant response rating, Buckwheat, Wild” value ([4]; Postemergence, 31 g ai/ha)?
**A.** The value was 65.

**Q.** And the “Plant response rating, Buckwheat, Wild” value ([4]; Postemergence, 62 g ai/ha)?
**A.** Its value is 90.

**Q.** What about the “Plant response rating, Buckwheat, Wild” value ([4]; Postemergence, 125 g ai/ha) of the same compound?
**A.** The value was 95.

**Q.** What about the “Plant response rating, Buckwheat, Wild” value ([4]; Preemergence, 16 g ai/ha) of the same compound?
**A.** The value was 45.

**Q.** What about the “Plant response rating, Buckwheat, Wild” value ([4]; Preemergence, 31 g ai/ha) of the same compound?
**A.** Its value is 65.

**Q.** And the “Plant response rating, Buckwheat, Wild” value ([4]; Preemergence, 62 g ai/ha)?
**A.** Its value is 80.

**Q.** What about the “Plant response rating, Buckwheat, Wild” value ([4]; Preemergence, 125 g ai/ha) of the same compound?
**A.** Its value is 85.

**Q.** What about the “Plant response rating, Pigweed” value ([5]; Postemergence, 16 g ai/ha) of the same compound?
**A.** The value was 65.

**Q.** What about the “Plant response rating, Pigweed” value ([5]; Postemergence, 31 g ai/ha) of the same compound?
**A.** Its value is 85.

**Q.** And the “Plant response rating, Pigweed” value ([5]; Postemergence, 62 g ai/ha)?
**A.** The value was 100.

**Q.** And the “Plant response rating, Pigweed” value ([5]; Postemergence, 125 g ai/ha)?
**A.** The value was 100.

**Q.** What about the “Plant response rating, Pigweed” value ([5]; Preemergence, 16 g ai/ha) of the same compound?
**A.** Its value is 65.

**Q.** And the “Plant response rating, Pigweed” value ([5]; Preemergence, 31 g ai/ha)?
**A.** Its value is 70.

**Q.** And the “Plant response rating, Pigweed” value ([5]; Preemergence, 62 g ai/ha)?
**A.** Its value is 85.

**Q.** And the “Plant response rating, Pigweed” value ([5]; Preemergence, 125 g ai/ha)?
**A.** Its value is 100.

**Q.** And the “Plant response rating, Wheat” value ([6]; Postemergence, 16 g ai/ha)?
**A.** The value was 70.

**Q.** What about the “Plant response rating, Wheat” value ([6]; Postemergence, 31 g ai/ha) of the same compound?
**A.** Its value is 70.

**Q.** And the “Plant response rating, Wheat” value ([6]; Postemergence, 62 g ai/ha)?
**A.** Its value is 100.

**Q.** And the “Plant response rating, Wheat” value ([6]; Postemergence, 125 g ai/ha)?
**A.** The value was 100.

**Q.** What about the “Plant response rating, Wheat” value ([6]; Preemergence, 16 g ai/ha) of the same compound?
**A.** Its value is 45.

**Q.** What about the “Plant response rating, Wheat” value ([6]; Preemergence, 31 g ai/ha) of the same compound?
**A.** The value was 60.

**Q.** What about the “Plant response rating, Wheat” value ([6]; Preemergence, 62 g ai/ha) of the same compound?
**A.** The value was 70.

**Q.** What about the “Plant response rating, Wheat” value ([6]; Preemergence, 125 g ai/ha) of the same compound?
**A.** Its value is 70.

**Q.** What about the “Plant response rating, Galium” value ([7]; Postemergence, 16 g ai/ha) of the same compound?
**A.** Its value is 75.

**Q.** And the “Plant response rating, Galium” value ([7]; Postemergence, 31 g ai/ha)?
**A.** The value was 100.

**Q.** What about the “Plant response rating, Galium” value ([7]; Postemergence, 62 g ai/ha) of the same compound?
**A.** The value was 100.

**Q.** What about the “Plant response rating, Galium” value ([7]; Postemergence, 125 g ai/ha) of the same compound?
**A.** The value was 100.

**Q.** And the “Plant response rating, Galium” value ([7]; Preemergence, 16 g ai/ha)?
**A.** The value was 80.

**Q.** What about the “Plant response rating, Galium” value ([7]; Preemergence, 31 g ai/ha) of the same compound?
**A.** Its value is 90.

**Q.** What about the “Plant response rating, Galium” value ([7]; Preemergence, 62 g ai/ha) of the same compound?
**A.** Its value is 98.

**Q.** And the “Plant response rating, Galium” value ([7]; Preemergence, 125 g ai/ha)?
**A.** The value was 100.

**Q.** What about the “Plant response rating, Russian Thistle” value ([8]; Postemergence, 16 g ai/ha) of the same compound?
**A.** Its value is 65.

**Q.** And the “Plant response rating, Russian Thistle” value ([8]; Postemergence, 31 g ai/ha)?
**A.** Its value is 85.

**Q.** What about the “Plant response rating, Russian Thistle” value ([8]; Postemergence, 62 g ai/ha) of the same compound?
**A.** Its value is 95.

**Q.** And the “Plant response rating, Russian Thistle” value ([8]; Postemergence, 125 g ai/ha)?
**A.** The value was 100.

**Q.** What about the “Plant response rating, Russian Thistle” value ([8]; Preemergence, 16 g ai/ha) of the same compound?
**A.** The value was 85.

**Q.** And the “Plant response rating, Russian Thistle” value ([8]; Preemergence, 31 g ai/ha)?
**A.** Its value is 100.

**Q.** And the “Plant response rating, Russian Thistle” value ([8]; Preemergence, 62 g ai/ha)?
**A.** Its value is 100.

**Q.** What about the “Plant response rating, Russian Thistle” value ([8]; Preemergence, 125 g ai/ha) of the same compound?
**A.** The value was 100.

**Q.** What about the “Plant response rating (scale of 0 to 100), Barley” value ([9]; 31 g ai/ha) of the same compound?
**A.** Its value is 0.

**Q.** What about the “Plant response rating, Barley” value ([9]; 125 g ai/ha) of the same compound?
**A.** Its value is 60.

**Q.** What about the “Plant response rating, Barley” value ([9]; 250 g ai/ha) of the same compound?
**A.** Its value is 60.

**Q.** And the plant injury at 62 g/ha ([9]; Hordeum vulgare, post-emergence, 62 g ai/ha, scale 0 to 100 (0 no effect, 100 complete control), read-out: Barley plant response rating)?
**A.** Its plant injury at 62 g/ha is 35%.
